We go through six compounds from patent US11253495B2, “Pharmaceutical composition for treating excessive lactate production and acidemia” (priority 2018, dated 2022).

The test system of one assay is cardiac arrest rat model. Kind of assay: Cardiac arrest rat model with CPR: mortality, brain death score, serum lactate and pH, organ ATP. The class given is in vivo. The conditions noted are these: for Serum lactate: FIG. 2, 24 hours after ROSC or right before death, vs G1 saline, combination vs single agent; for Mortality at 24 hours after ROSC: rats, 7 min cardiac arrest, iv treatment 10 minutes after ROSC, doses of Table 1, n=8 each group.

For assay [1], the system named is focal cerebral ischemia rat model. Kind of assay: Focal cerebral ischemia rat model (3 h MCA occlusion, 21 h reperfusion): behavioral deficit, infarct size, serum lactate, brain ATP. Type of assay: in vivo. The settings on record: FIG. 10; 24 hours after ischemia; vs G1 saline; combination vs single agent. The method, then: 180-230 g CD rats were used. Ketamine/xylazine 30 mg/kg ip was given for anesthesia in each rat. A midline incision on the neck was made. The left common carotid artery, the external carotid artery (ECA) and the internal carotid artery (ICA) were exposed. The ECA was ligated and severed. Focal cerebral ischemia was produced by a 3.0 nylon suture that was advanced from the ECA to ICA to block the origin of left middle cerebral artery. The nylon suture was left in place to induce focal cerebral ischemia on left hemisphere supplied by middle cerebral artery. The ischemia lasted for 3 hours, the nylon suture was then removed to allow blood reperfusion for 21 hours.
This treatment time point is one hour before restoring blood flow (reperfusion).
At 24 hours after cerebral ischemia, each rat was evaluated for behavioral deficits. A score of 0-4 was used to assess the motor and behavioral changes. Score 0: No apparent deficits, Score 1: Contralateral forelimb flexion, Score 2: Decreased grip of the contralateral forelimb when the tail is pulled, Score 3: Spontaneous movement in all directions; contralateral circling only if pulled by tail and Score 4: Spontaneous contralateral circling.
At 24 hours after ischemia, blood samples were collected, serum lactate, was measured using blood chemistry analyzer. LDH was measured using colorimetric method.
After blood samples collection, each rat was euthanized. The brain was excised. A small piece of the cortex in ischemic core was obtained, weighed and then homogenized at 0° C. The ATP content was evaluated using ATP content measurement using luciferase-luciferin luminescence detection assay.
Each brain was immediately cut into 6 coronal sections (1 mm in thickness) and stained with 1% 2,3,5-triphenyltetrazolium chloride (TTC) in PBS solution at 37° C. for 10 minutes. The infarct size was identified as the non-TTC-stained area, the infarction percentage (%) was calculated by the ratio of area of infarction size to area of whole brain.

The test system of another assay is phenformin intoxication. Kind of assay: Phenformin intoxication and severe lactate acidemia in mice: survival time, serum lactate, serum pH. Type of assay: in vivo, CD-1 mice. The conditions noted are these: doses of Table 4, vs G1 saline; for Serum lactate at 1 hour after phenformin intoxication: FIG. 14, combination vs single agent; for Serum pH value at 1 hour after phenformin intoxication: FIG. 15. The method, then: CD-1 mice (20-25 gram) were used. All mice were pre-treated according to the Table 4.
10 minutes after treatment, intoxication of severe lactate acidemia was induced by injecting phenformin chloride (concentration 20 mg/ml) at dose of 200 mg/kg intraperitoneally. At 1 hour after phenformin injection, serum lactate and pH were measured.

The structures appear in SMILES notation.

With `NC(=O)C(=O)[O-].[Na+]` [Sodium oxamate], in the assay on cardiac arrest rat model, the Serum lactate result is “reduce lactate production” and the “Mortality at 24 hours after ROSC” value is 1 out of 8. Besides, the Serum lactate content entry in assay [1] was “reduce lactate production”. Besides, in the assay on phenformin intoxication, the “Serum lactate at 1 hour after phenformin intoxication” value (shortened to “Serum lactate at 1 hour”) is listed as “reduce lactate production”.
Take `Cc1ncc(COP(=O)(O)O)c(C=O)c1O` [PLP, pyridoxal 5′-phosphate]: the Serum lactate entry with cardiac arrest rat model was “reduce lactate production”. Further, the Serum lactate content result in assay [1] is on record as “reduce lactate production”. In addition, the “Serum lactate at 1 hour” value in the assay on phenformin intoxication is on record as “reduce lactate production”.
Consider `O=C([O-])CC(=O)C(=O)O.[Na+]` [oxaloacetate, Sodium oxaloacetate], for which the Serum lactate entry with cardiac arrest rat model is “reduce lactate production”. Further, the Serum lactate content entry in assay [1] is “reduce lactate production”. In addition, the “Serum lactate at 1 hour” value with phenformin intoxication was “reduce lactate production”.
As to `N[C@@H](CCC(=O)[O-])C(=O)[O-].[Na+].[Na+]` [Sodium glutamate], in the assay with cardiac arrest rat model, the Serum lactate entry is “reduce lactate production” and the “Mortality at 24 hours after ROSC” value is 1 out of 8. In assay [1], the Serum lactate content entry is recorded as “reduce lactate production”. Further, in the assay on phenformin intoxication, the “Serum lactate at 1 hour” value is “reduce lactate production” and the “Serum pH value at 1 hour after phenformin intoxication” value is “particularly effective”.
On to `N#Cc1cc(NC(=O)C(=O)O)c(Cl)c(NC(=O)C(=O)O)c1.NC(CO)(CO)CO.NC(CO)(CO)CO` [Lodoxamide tromethamine], for which the “Serum lactate at 1 hour” value with phenformin intoxication was “reduce lactate production”.
Regarding `N[C@@H](CC(=O)[O-])C(=O)[O-].[Na+].[Na+]` [sodium aspartate, Sodium Aspartate], in the assay with cardiac arrest rat model, the Serum lactate result is given as “reduce lactate production”. In addition, in assay [1], the Serum lactate content result is “reduce lactate production”. In addition, in the assay with phenformin intoxication, the “Serum lactate at 1 hour” value is “reduce lactate production” and the “Serum pH value at 1 hour after phenformin intoxication” value is “particularly effective”.
